# Source: patent US20150087673A1, “METHODS FOR USING AND BIOMARKERS FOR AMPK-ACTIVATING COMPOUNDS” (RIGEL PHARMACEUTICALS, INC., priority 2013, published 2015)
# Test system: AMPK
# Assay: AMPK activation assay (enzyme-linked immunosorbent assay)
# Format: cell-based
# Summary of the method: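 Activator screen performed per well-known kit methods.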
row,Compound,EC50
1,"N#Cc1ccc(OC2CCN(C(=O)c3ccc(C(=O)NC4CCN(Cc5ccc(N6CCCC6)cc5)CC4)cn3)CC2)cc1 [Compound 336, 6-(4-(4-cyanophenoxy)piperidine-1-carbonyl)-N-(1-(4-(pyrrolidin-1-yl)benzyl)piperidin-4-yl)nicotinamide]",< 500 nM
2,"N#Cc1ccc(OC2CCN(C(=O)c3ccc(C(=O)NC4CCN(Cc5ccc(N6CCOCC6)cc5)CC4)cn3)CC2)cc1 [Compound 337, 6-(4-(4-cyanophenoxy)piperidine-1-carbonyl)-N-(1-(4-morpholinobenzyl)piperidin-4-yl)nicotinamide]",< 500 nM
3,"N#Cc1ccc(OC2CCN(C(=O)c3ccc(C(=O)NC4CCN(Cc5ccc(OC(F)(F)F)cc5)CC4)cn3)CC2)cc1 [Compound 338, 6-(4-(4-cyanophenoxy)piperidine-1-carbonyl)-N-(1-(4-(trifluoromethoxy)benzyl)piperidin-4-yl)nicotinamide]",< 500 nM
4,"N#Cc1ccc(CN2CCC(NC(=O)c3ccc(C(=O)N4CCN(c5ccc(C(F)(F)F)cc5)CC4)cn3)CC2)cc1 [Compound 339, N-(1-(4-cyanobenzyl)piperidin-4-yl)-5-(4-(4-(trifluoromethyl)phenyl)piperazine-1-carbonyl)picolinamide]",< 500 nM
5,"N#Cc1ccc(CN2CCC(NC(=O)c3ccc(C(=O)N4CCN(c5ccc(C#N)cc5)CC4)cn3)CC2)cc1 [Compound 340, N-(1-(4-cyanobenzyl)piperidin-4-yl)-5-(4-(4-cyanophenyl)piperazine-1-carbonyl)picolinamide]",< 500 nM
6,"N#Cc1ccc(CN2CCC(NC(=O)c3ccc(C(=O)N4CCN(c5ccc(F)cc5)CC4)cn3)CC2)cc1 [Compound 341, N-(1-(4-cyanobenzyl)piperidin-4-yl)-5-(4-(4-fluorophenyl)piperazine-1-carbonyl)picolinamide]",< 500 nM
7,"O=C(Nc1ccc(Oc2ccc(F)cc2)nc1)c1ccc(C(=O)N2CCC(C(=O)c3ccc(F)cc3F)CC2)cn1 [Compound 342, 5-(4-(2,4-difluorobenzoyl)piperidine-1-carbonyl)-N-(6-(4-fluorophenoxy)pyridin-3-yl)picolinamide]",< 500 nM
8,"O=C(Nc1ccc(Oc2ccc(F)cc2)nc1)c1ccc(C(=O)N2CCC(Oc3ccc(F)cc3F)CC2)nc1 [Compound 343, 6-(4-(2,4-difluorophenoxy)piperidine-1-carbonyl)-N-(6-(4-fluorophenoxy)pyridin-3-yl)nicotinamide]",< 500 nM
9,"COc1ccc(CN2CCC(NC(=O)c3ccc(C(=O)N4CCC(Oc5ccc(F)cc5F)CC4)nc3)CC2)cc1 [Compound 344, 6-(4-(2,4-difluorophenoxy)piperidine-1-carbonyl)-N-(1-(4-methoxybenzyl)piperidin-4-yl)nicotinamide]",< 500 nM
10,"N#Cc1ccc(CN2CCC(NC(=O)c3ccc(C(=O)N4CCC(Oc5ccc(F)cc5F)CC4)nc3)CC2)cc1 [Compound 345, N-(1-(4-cyanobenzyl)piperidin-4-yl)-6-(4-(2,4-difluorophenoxy)piperidine-1-carbonyl)nicotinamide]",< 500 nM
11,"N#Cc1ccc(CN2CCC(NC(=O)c3ccc(C(=O)N4CCC(C(=O)c5ccc(F)cc5F)CC4)nc3)CC2)cc1 [Compound 346, N-(1-(4-cyanobenzyl)piperidin-4-yl)-6-(4-(2,4-difluorobenzoyl)piperidine-1-carbonyl)nicotinamide]",< 500 nM
12,"COc1ccc(CN2CCC(NC(=O)c3ccc(C(=O)N4CCC(C(=O)c5ccc(F)cc5F)CC4)nc3)CC2)cc1 [Compound 347, 6-(4-(2,4-difluorobenzoyl)piperidine-1-carbonyl)-N-(1-(4-methoxybenzyl)piperidin-4-yl)nicotinamide]",< 500 nM
13,"O=C(Nc1ccc(Oc2ccc(F)cc2)nc1)c1ccc(C(=O)N2CCC(C(=O)c3ccc(F)cc3F)CC2)nc1 [Compound 348, 6-(4-(2,4-difluorobenzoyl)piperidine-1-carbonyl)-N-(6-(4-fluorophenoxy)pyridin-3-yl)nicotinamide]",< 500 nM
